Source: US9181235B2, “Substituted pyridines for modulating the WNT signaling pathway” (NOVARTIS AG, priority 2010, dated 2015)

Test system: Wnt signaling
Test: Wnt-Luc reporter assay for pathway inhibition of Wnt signaling
Assay type: cell-based, mouse (TM3 Wnt-Luc) or human (293 Wnt-Luc); not stated which
Settings: Wnt-Luc reporter cells co-cultured with L-cell Wnt3a cells, 24 hours, luciferase signal reduced by 50%
Description: This example provides a method that is useful for evaluating test compounds for inhibition of Wnt signaling.
Mouse leydig cell TM3 cells (obtained from American Type Culture Collection, ATCC, Manassas, Va.) are cultured in 1:1 mixture of Ham's F12 medium and Dulbecco's modified Eagle's medium (Gibco/Invitrogen, Carlsbad, Calif.) supplemented with 2.5% FBS (Gibco/Invitrogen, Carlsbad, Calif.) and 5% horse serum (Gibco/Invitrogen, Carlsbad, Calif.), 50 unit/mL penicillin and 50 μg/mL of streptomycin (Gibco/Invitrogen, Carlsbad, Calif.) at 37° C. with 5% CO2 in air atmosphere. TM3 cells in a 10 cm dish are co-transfected with 8 μg of STF-reporter plasmid containing a luciferase gene driven by Wnt-responsive elements and 2 μg of pcDNA3.1-Neo (Gibco/Invitrogen, Carlsbad, Calif.) with 30 μL of FuGENE6 (Roche Diagnostics, Indianapolis, Ind.) following the manufacturer's protocol. Stable cell lines (TM3 Wnt-Luc) were selected with 400 μg/mL of G418 (Gibco/Invitrogen, Carlsbad, Calif.). The TM3 Wnt-Luc cells and L-cell Wnt3a cells (obtained from American Type Culture Collection, ATCC, Manassas, Va.; cultured in Dulbecco's modified Eagle's medium (Gibco/Invitrogen, Carlsbad, Calif.) supplemented with 10% FBS (Gibco/Invitrogen, Carlsbad, Calif.) and 50 unit/mL penicillin and 50 μg/mL of streptomycin (Gibco/Invitrogen, Carlsbad, Calif.) at 37° C. with 5% CO2 in air atmosphere) are trypsinized and co-cultured into a 384-well plate with DMEM medium supplemented with 2% FBS, and treated with different concentrations of a compound of the invention. After 24 hours, the firefly luciferase activities are assayed with the Bright-Glo™ Luciferase Assay System (Promega, Madison, Wis.). The IC50 is measured when the effect of the compound reduces the luminescence signal by 50%.
This example provides another method that is useful for evaluating test compounds for inhibition of Wnt signaling.
Human embryonic kidney 293 cells (obtained from American Type Culture Collection, ATCC, Manassas, Va.) are cultured in DMEM medium (Gibco/Invitrogen, Carlsbad, Calif.) supplemented with 10% FBS (Gibco/Invitrogen, Carlsbad, Calif.), 50 unit/mL penicillin and 50 μg/mL of streptomycin (Gibco/Invitrogen, Carlsbad, Calif.) at 37° C. with 5% CO2 in air atmosphere. 293 cells in a 10 cm dish are co-transfected with 8 μg of STF-reporter plasmid containing a luciferase gene driven by Wnt-responsive elements and 2 μg of pcDNA3.1-Neo (Gibco/Invitrogen, Carlsbad, Calif.) with 30 μL of FuGENE6 (Roche Diagnostics, Indianapolis, Ind.) following the manufacturer's protocol. Stable cell lines (293 Wnt-Luc) were selected with 400 μg/mL of G418 (Gibco/Invitrogen, Carlsbad, Calif.). The 293 Wnt-Luc cells and L-cell Wnt3a cells (obtained from American Type Culture Collection, ATCC, Manassas, Va.) are trypsinized and co-cultured into a 384-well plate with DMEM medium supplemented with 2% FBS, and treated with different concentrations of a compound of the invention. After 24 hours, the firefly luciferase activities are assayed with the Bright-Glo™ Luciferase Assay System (Promega, Madison, Wis.). The IC50 is measured when the effect of the compound reduces the luminescence signal by 50%.

SMILES | IC50 [nM]
O=C(NCc1ccc(-c2ccnc(C(F)(F)F)c2)nc1)c1ccc(-c2cccc(F)c2)cn1 [compound 33, 5-(3-Fluorophenyl)-N-((2′-(trifluoromethyl)-2,4′-bipyridin-5-yl)methyl)picolinamide] | 0.2
Cc1cc(-c2ccc(CNC(=O)c3ccc(-c4ccc(F)cc4)cn3)cn2)ccn1 [compound 35, 5-(4-fluorophenyl)-N-{[6-(2-methylpyridin-4-yl)pyridin-3-yl]methyl}pyridine-2-carboxamide] | 4.9
Cc1cc(-c2ncc(CNC(=O)c3ccc(-c4cccc(F)c4)cn3)cc2C)ccn1 [compound 36, 5-(3-fluorophenyl)-N-{[5-methyl-6-(2-methylpyridin-4-yl)pyridin-3-yl]methyl}pyridine-2-carboxamide] | 0.3
O=C(NCc1ccc(-c2ccnc(F)c2)nc1)c1ccc(-c2ccnnc2)cn1 [compound 37, N-{[6-(2-fluoropyridin-4-yl)pyridin-3-yl]methyl}-5-(pyridazin-4-yl)pyridine-2-carboxamide] | 42
CN(C)c1ccc(-c2ccc(C(=O)NCc3ccc(-c4ccnc(F)c4)nc3)nc2)cn1 [compound 38, 6′-(Dimethylamino)-N-((2′-fluoro-2,4′-bipyridin-5-yl)methyl)-3,3′-bipyridine-6-carboxamide] | 0.56
Cc1cc(CNC(=O)c2ccc(-c3cnccn3)cn2)cnc1-c1ccnc(F)c1 [compound 39, N-{[6-(2-fluoropyridin-4-yl)-5-methylpyridin-3-yl]methyl}-5-(pyrazin-2-yl)pyridine-2-carboxamide] | 0.26
Cc1cc(CNC(=O)c2ccc(-c3cnccn3)nc2)cnc1-c1ccnc(F)c1 [compound 40, N-{[6-(2-fluoropyridin-4-yl)-5-methylpyridin-3-yl]methyl}-6-(pyrazin-2-yl)pyridine-3-carboxamide] | 0.76
O=C(NCc1ccc(-c2ccnc(C(F)(F)F)c2)nc1)c1ccc(-c2cnccn2)cn1 [compound 41, 5-(Pyrazin-2-yl)-N-((2′-(trifluoromethyl)-2,4′-bipyridin-5-yl)methyl)picolinamide] | 0.36
O=C(NCc1ccc(-c2ccnc(C(F)(F)F)c2)nc1)c1ccc(-c2cnccn2)nc1 [compound 42, 6-(Pyrazin-2-yl)-N-((2′-(trifluoromethyl)-2,4′-bipyridin-5-yl)methyl)nicotinamide] | 0.79
CS(=O)(=O)c1cccc(-c2ccc(C(=O)NCc3ccc(-c4ccnc(F)c4)nc3)nc2)c1 [compound 43, N-((2′-Fluoro-2,4′-bipyridin-5-yl)methyl)-5-(3-(methylsulfonyl)phenyl)picolinamide] | 718
O=C(NCc1ccc(-c2ccnc(F)c2)nc1)c1ccc(-n2ccccc2=O)cn1 [compound 44, N-((2′-fluoro-[2,4′-bipyridin]-5-yl)methyl)-2-oxo-2H-[1,3′-bipyridine]-6′-carboxamide] | 465
Cc1cc(-c2ccc(CNC(=O)c3ccc(-c4ccccc4C)cc3)cn2)ccn1 [compound 45, 4-(2-methylphenyl)-N-{[6-(2-methylpyridin-4-yl)pyridin-3-yl]methyl}benzamide] | 3.5
CC(=O)N1CCN(c2ccc(C(=O)NCc3cnc(-c4ccnc(C(F)(F)F)c4)c(F)c3)cn2)CC1 [compound 46, 6-(4-Acetylpiperazin-1-yl)-N-((3-fluoro-2′-(trifluoromethyl)-[2,4′-bipyridin]-5-yl)methyl)nicotinamide] | 4.2
Cc1cc(CNC(=O)c2ccc(-c3cccc(F)c3)nc2)cnc1-c1ccnc(C(F)(F)F)c1 [compound 47, 6-(3-fluorophenyl)-N-({5-methyl-6-[2-(trifluoromethyl)pyridin-4-yl]pyridin-3-yl}methyl)pyridine-3-carboxamide] | 0.26
CC(=O)N1CCN(c2ccc(C(=O)NCc3cnc(-c4ccnc(C(F)(F)F)c4)c(C)c3)nc2)CC1 [compound 48, 5-(4-Acetylpiperazin-1-yl)-N-((3-methyl-2′-(trifluoromethyl)-2,4′-bipyridin-5-yl)methyl)picolinamide] | 26
COC(=O)N1CCN(c2ccc(C(=O)NCc3cnc(-c4ccnc(C(F)(F)F)c4)c(F)c3)nc2)CC1 [compound 49, Methyl 4-(6-((3-fluoro-2′-(trifluoromethyl)-2,4′-bipyridin-5-yl)methylcarbamoyl)pyridin-3-yl)piperazine-1-carboxylate] | 0.24
Cc1cc(-c2ccc(CNC(=O)c3ccc(-c4ccccc4)c(C)c3)cn2)ccn1 [compound 50, 3-methyl-N-{[6-(2-methylpyridin-4-yl)pyridin-3-yl]methyl}-4-phenylbenzamide] | 3
Cc1cc(CNC(=O)c2ccc(-c3cccnn3)nc2)cnc1-c1ccnc(F)c1 [compound 52, N-{[6-(2-fluoropyridin-4-yl)-5-methylpyridin-3-yl]methyl}-6-(pyridazin-3-yl)pyridine-3-carboxamide] | 1.6
Cc1cc(CNC(=O)c2ccc(-c3cccnn3)nc2)cnc1-c1ccnc(C(F)(F)F)c1 [compound 53, N-({5-methyl-6-[2-(trifluoromethyl)pyridin-4-yl]pyridin-3-yl}methyl)-6-(pyridazin-3-yl)pyridine-3-carboxamide] | 10.2
Cc1cc(CNC(=O)c2ccc(-c3cnccn3)nc2)cnc1-c1ccnc(C(F)(F)F)c1 [compound 54, N-({5-methyl-6-[2-(trifluoromethyl)pyridin-4-yl]pyridin-3-yl}methyl)-6-(pyrazin-2-yl)pyridine-3-carboxamide] | 1.2
Cc1cc(CNC(=O)c2ccc(-c3cnccn3)cn2)cnc1-c1ccnc(C(F)(F)F)c1 [compound 55, N-((3-Methyl-2′-(trifluoromethyl)-2,4′-bipyridin-5-yl)methyl)-5-(pyrazin-2-yl)picolinamide] | 0.8
O=C(NCc1ccn(-c2ccnc(C(F)(F)F)c2)c(=O)c1)c1ccc(-c2cnccn2)cn1 [compound 56, N-((2-oxo-1-(2-(trifluoromethyl)pyridin-4-yl)-1,2-dihydropyridin-4-yl)methyl)-5-(pyrazin-2-yl)picolinamide] | 34
Cc1cc(CNC(=O)c2ccc(-c3cccc(F)c3)cn2)cnc1-c1ccnc(C(F)(F)F)c1 [compound 57, 5-(3-fluorophenyl)-N-({5-methyl-6-[2-(trifluoromethyl)pyridin-4-yl]pyridin-3-yl}methyl)pyridine-2-carboxamide] | 0.35
Cc1cc(CNC(=O)c2ccc(-c3cnccn3)cc2)cnc1-c1ccnc(C(F)(F)F)c1 [compound 58, N-((3-Methyl-2′-(trifluoromethyl)-2,4′-bipyridin-5-yl)methyl)-4-(pyrazin-2-yl)benzamide] | 0.41
Cc1cc(-c2ncc(CNC(=O)c3ccc(-c4cccc(F)c4)cn3)cc2F)ccn1 [compound 59, N-{[5-fluoro-6-(2-methylpyridin-4-yl)pyridin-3-yl]methyl}-5-(3-fluorophenyl)pyridine-2-carboxamide] | 0.29
Cc1cc(-c2ncc(CNC(=O)c3ccc(-c4cnccn4)cn3)cc2F)ccn1 [compound 60, N-{[5-fluoro-6-(2-methylpyridin-4-yl)pyridin-3-yl]methyl}-5-(pyrazin-2-yl)pyridine-2-carboxamide] | 0.26
Cc1cc(-c2ncc(CNC(=O)c3ccc(-c4cnccn4)nc3)cc2F)ccn1 [compound 61, N-{[5-fluoro-6-(2-methylpyridin-4-yl)pyridin-3-yl]methyl}-6-(pyrazin-2-yl)pyridine-3-carboxamide] | 0.62
CC(=O)N1CCN(c2ccc(C(=O)NCc3cnc(-c4ccnc(C)c4)c(F)c3)nc2)CC1 [compound 62, 5-(4-acetylpiperazin-1-yl)-N-{[5-fluoro-6-(2-methylpyridin-4-yl)pyridin-3-yl]methyl}pyridine-2-carboxamide] | 11.8
Cc1cc(-c2ncc(CNC(=O)c3ccc(-c4cnccn4)cn3)cc2C)ccn1 [compound 63, N-((2′,3-dimethyl-2,4′-bipyridin-5-yl)methyl)-5-(pyrazin-2-yl)picolinamide] | 2.5
